Experimental data from publication PMC9986249, “Comparative study on antibacterial characteristics of the multiple liver expressed antimicrobial peptides (LEAPs) in teleost fish” (Frontiers in Immunology, 2023).
No end group written: not given here.

Columns and labels:
[1] = tested on: Gram-positive and Gram-negative bacteria; conditions: cited from earlier work
Text: Mammalian LEAP-2 is a single gene, which is mainly expressed by the liver, and to a certain extent by other tissues ([18]). For example, mouse LEAP-2 is mainly expressed in the liver and small intestine ([18]). […] Therefore, LEAP-2 may have other physiological functions besides sterilization. However, unlike mammals with a single LEAP-2 ...

[2] = tested on: V. fluvialis WY91-24-3; assay: Bacterial membrane permeability assay (PI influx, flow cytometry); type: cell-based, Vibrio fluvialis; conditions: peptide 8 μM, 10 mM NaPB pH 7.4, 37°C, 1 h; PI 9 μM; flow cytometry, 3,000 events; representative of three independent experiments
Method: The membrane permeability of bacteria after the treatment of peptides was assessed by flow cytometry as previously described ([33]) with minor modifications. In brief, V. fluvialis WY91-24-3 were cultured to mid-logarithmic phase, then washed twice and resuspended to 10^6 CFU/ml with 10 mM NaPB (pH 7.4). Thereafter, 40 μl of peptides diluted in NaPB was added to 160 μl of V. fluvialis to give a final concentration of 8 μM. LL37 and NaPB was used as the positive and negative control, respectively. After being incubated at 37°C for 1 h, propidium iodide (PI; Sigma-Aldrich) was added to the bacterial suspension at a final concentration of 9 μM. The PI positive bacterial cells were detected using the flow cytometer FACSVerse (BD Biosciences) at 3,000 events and the data were analyzed using the FlowJo software v10 (Tree Star).
Figure 6 Antibacterial mechanisms of LEAPs. (A–J) Membrane permeability of V. fluvialis treated with LEAPs. The bacteria were incubated with LEAPs (8 μM) at 37°C for 1 h, and a bacterial suspension without peptide was included as a control (Ctrl). Then PI (9 μM) was added and the influx of PI was detected by flow cytometry. Data are representative results of three independent experiments. (K) The data in (A–J) were analyzed statistically. The p value was calculated by one-way ANOVA with a Dunnett post hoc test. Different letters indicate significant differences (p<0.05). […]

Substance	antibacterial activity [1]	PI positive bacterial cells [2]
mature peptide 38-77 of human LEAP-2: mature peptide 38-77 of human LEAP-2 (MTPFWRGVSLRPIGASCRDDSECITRLCRKRRCSLSVAQE; ends and bridges not checked; cysteine pairing not given here; UniProt Q969E1 38-77, looked up)	different killing effects	
LL-37: human AMP LL-37, positive control of the membrane permeability assay (LLGDFFRKSKEKIGKEFKRIVQRIKDFLRNLVPRTES; Antibacterial peptide LL-37; UniProt P49913 134-170, looked up)		85.2%
cleaved form 44-77: cleaved form 44-77 of human LEAP-2 (GVSLRPIGASCRDDSECITRLCRKRRCSLSVAQE; ends and bridges not checked; cysteine pairing not given here; UniProt Q969E1 44-77, looked up, fragment)	loses antibacterial activity	
